According to US9193819B2, “Polymers, substrates, methods for making such, and devices comprising the same” (Avertica, Inc., priority 2013, dated 2015):
Where a name gives a salt, the structure may show the parent alone.

test system: mushroom tyrosinase (polyphenol oxidase) Sigma T3824; test: Testing of polymer production in enzymatic tyrosinase (polyphenol oxidase) reaction; type: biochemical; set-up: key: +++: Reacted within about 1 hour; ++: reacted within about 3 hours; +: reacted within about 24 hours; +/−: inconclusive results; −: no reaction; details: approx. 50 mM potassium phosphate buffer pH 6.5, approx. 5 mM substrate, 100 to 10,000 units enzyme, observed over 24 hours
Protocol: All reactions were carried out in approximately 50 mM potassium phosphate buffer, pH 6.5 with approximately 5 mM substrate and mushroom tyrosinase (polyphenol oxidase) Sigma T3824 in an amount of 100 to 10,000 units. Reaction volumes varied from 200 μl to 2 ml. In cases where substrates were not completely solubilized, then a saturated solution was used as the limit of solubility. In some cases, a solution of DMSO was used to increase solubility of the substrates. […] The reactions were observed over a 24 hour period for the production of polymers, and the presence and color of polymer and solution was recorded.
The production of polymers in each reaction was visible as a precipitate in the well of a 96 well plate or in the reaction mixture on a glass slide.

| Structure (SMILES) | Result (polymer production in tyrosinase reaction) |
| --- | --- |
| Cl.NCCc1ccccc1 [Beta phenylethylamine HCL] | +/− |
| c1ccc2[nH]ccc2c1 [Indole] | − |
| Cl.NCCc1ccc(O)cc1 [Tyramine HCl] | +++ (Reacted within about 1 hour) |
| NCCc1ccc(O)cc1 [Tyramine] | +++ (Reacted within about 1 hour) |

The next lines start with the values.

| Result (polymer production in tyrosinase reaction) | Structure (SMILES) |
| --- | --- |
| + (reacted within about 24 hours) | Oc1ccc2cc(O)ccc2c1 [2,6 dihydroxnaphthalene] |
| +++ (Reacted within about 1 hour) | Oc1ccc2[nH]ccc2c1 [5-hydroxyindole] |
| ++ (reacted within about 3 hours) | Oc1ccc2cc[nH]c2c1 [6 Hydroxyindole] |
| ++ (reacted within about 3 hours) | CN[C@@H](Cc1ccc(O)cc1)C(=O)O [N-methyl tyrosine] |
| ++ (reacted within about 3 hours) | N[C@@H](Cc1ccc(O)cc1)C(=O)O [Tyrosine] |

same assay, conditions: as E1, substrate (or a marked component) dissolved in 20% DMSO

| Result (polymer production in tyrosinase reaction) | Structure (SMILES) |
| --- | --- |
| + (reacted within about 24 hours) | Oc1ccc(-c2cc(-c3ccc(O)cc3)cc(-c3ccc(O)cc3)c2)cc1 [1,3,5 Tris(4hydroxyphenyl)benzene] |
| − | Oc1ccc2c(c1)[nH]c1ccccc12 [2 Hydroxy carbazole] |

| Structure (SMILES) | Result (polymer production in tyrosinase reaction) |
| --- | --- |
| CC1=NCCc2c1[nH]c1cc(O)ccc21 [Harmalol HCl dehydrate] | − |
